Assay results published in US20020137929A1, “1 - (3-heterocyclylphenyl) isothiourea, -isourea, -guanidine and -amidine herbicidal agents” (Intellectual Property Department, BASF Aktiengesellschaft, priority 1998, published 2002).

Columns and labels:
[1] = tested on: ABUTH (Velvetleaf); experiment: Postemergence herbicidal evaluation; type: in vivo, Abutilon theophrasti; conditions: postemergence
Summary of the method: (§1)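 Herbicidal effect was judged by eye on a 0–9 scale covering stand, vigor, deformity, size and chlorosis, compared with controls, four to five weeks after seedlings about two weeks old were sprayed (40 psi, ~0.0156–0.500 kg/ha).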

[2] = tested on: AMBEL (Ragweed, Common); experiment: Postemergence herbicidal evaluation; type: in vivo, Ambrosia artemisifolia; conditions: postemergence
Summary of the method: as §1

[3] = tested on: IPOHE (Morningglory, Ivyleaf); experiment: Postemergence herbicidal evaluation; type: in vivo, Ipomoea hederacea; conditions: postemergence
Summary of the method: as §1

[4] = tested on: ECHCG (Barnyardgrass); experiment: Postemergence herbicidal evaluation; type: in vivo, Echinochloa crus-galli; conditions: postemergence
Summary of the method: as §1

[5] = tested on: SETVI (Foxtail, Green); experiment: Postemergence herbicidal evaluation; type: in vivo, Setaria viridis; conditions: postemergence
Summary of the method: as §1

[6] = tested on: GLXMAW (Soybean, Williams); experiment: Postemergence herbicidal evaluation; type: in vivo, Glycine max, (L.) Merr. cv Williams; conditions: postemergence
Summary of the method: as §1

[7] = tested on: TRZAWR (Wheat, Winter, cv Riband); experiment: Postemergence herbicidal evaluation; type: in vivo, Triticum aestivum; conditions: postemergence
Summary of the method: as §1

[8] = tested on: CASOB (Sicklepod); experiment: Preemergence herbicidal evaluation; type: in vivo, Cassia obtusifolia; conditions: rated 4-5 weeks after treatment
Summary of the method: (§2)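 Scores (0–9) reflect visual comparison with control plants for stand, vigor, malformation, size and chlorosis. Compound was applied to the soil after sowing, before emergence, as an aqueous acetone spray (about 0.0156–0.500 kg/ha), and cups were kept in a greenhouse for 4–5 weeks.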

[9] = tested on: CHEAL (Lambsquarters, Common); experiment: Preemergence herbicidal evaluation; type: in vivo, Chenopodium album; conditions: rated 4-5 weeks after treatment
Summary of the method: as §2

[10] = tested on: GALAP (Galium); experiment: Preemergence herbicidal evaluation; type: in vivo, Galium aparine; conditions: rated 4-5 weeks after treatment
Summary of the method: as §2

[11] = tested on: IPOHE (Morningglory, Ivyleaf); experiment: Preemergence herbicidal evaluation; type: in vivo, Ipomoea hederacea; conditions: rated 4-5 weeks after treatment
Summary of the method: as §2

[12] = tested on: ECHCG (Barnyardgrass); experiment: Preemergence herbicidal evaluation; type: in vivo, Echinochloa crus-galli; conditions: rated 4-5 weeks after treatment
Summary of the method: as §2

[13] = tested on: ZEAMX (Corn, Field); experiment: Preemergence herbicidal evaluation; type: in vivo, Zea mays; conditions: rated 4-5 weeks after treatment
Summary of the method: as §2

[14] = tested on: ECHORC (Watergrass (Calif.)); experiment: Postemergence weed control under flooded paddy conditions; type: in vivo, Echinochloa oryzoides; conditions: postemergence weeds, 3-4 weeks after treatment
Summary of the method: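 Weeds 3 to 5 cm tall and rice seedlings at the 1.5 to 2.5 leaf stage were flooded, with water held 1.5 to 3 cm above the soil. Compounds in 50/50 v/v aqueous/acetone went into the flood water at about 0.0313 to 0.500 kg/ha. Visual 0-9 ratings versus control were made 3 to 4 weeks later.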

Compound: CC1SC(=Nc2cc(-n3c(=O)cc(C(F)(F)F)n(C)c3=O)c(F)cc2Cl)N(C)C1=O (stereo not shown) [Compound 9]
- ABUTH herbicidal rating ([1]; rate 0.0156 kg/ha): 9.0
- ABUTH herbicidal rating ([1]; rate 0.0313 kg/ha): 9.0
- ABUTH herbicidal rating ([1]; rate 0.0625 kg/ha): 9.0
- ABUTH herbicidal rating ([1]; rate 0.1250 kg/ha): 9.0
- AMBEL herbicidal rating ([2]; rate 0.0156 kg/ha): 2.0
- AMBEL herbicidal rating ([2]; rate 0.0313 kg/ha): 3.5
- AMBEL herbicidal rating ([2]; rate 0.0625 kg/ha): 7.5
- AMBEL herbicidal rating ([2]; rate 0.1250 kg/ha): 7.0
- IPOHE herbicidal rating ([3]; rate 0.0156 kg/ha): 4.0
- IPOHE herbicidal rating ([3]; rate 0.0313 kg/ha): 7.0
- IPOHE herbicidal rating ([3]; rate 0.0625 kg/ha): 9.0
- IPOHE herbicidal rating ([3]; rate 0.1250 kg/ha): 9.0
- ECHCG herbicidal rating ([4]; rate 0.0156 kg/ha): 0.0
- ECHCG herbicidal rating ([4]; rate 0.0313 kg/ha): 0.0
- ECHCG herbicidal rating ([4]; rate 0.0625 kg/ha): 2.0
- ECHCG herbicidal rating ([4]; rate 0.1250 kg/ha): 4.5
- SETVI herbicidal rating ([5]; rate 0.0156 kg/ha): 1.0
- SETVI herbicidal rating ([5]; rate 0.0313 kg/ha): 2.0
- SETVI herbicidal rating ([5]; rate 0.0625 kg/ha): 6.5
- SETVI herbicidal rating ([5]; rate 0.1250 kg/ha): 9.0
- GLXMAW herbicidal rating ([6]; rate 0.0156 kg/ha): 4.5
- GLXMAW herbicidal rating ([6]; rate 0.0313 kg/ha): 5.8
- GLXMAW herbicidal rating ([6]; rate 0.0625 kg/ha): 6.8
- GLXMAW herbicidal rating ([6]; rate 0.1250 kg/ha): 7.3
- TRZAWR herbicidal rating ([7]; rate 0.0156 kg/ha): 3.3
- TRZAWR herbicidal rating ([7]; rate 0.0313 kg/ha): 3.5
- TRZAWR herbicidal rating ([7]; rate 0.0625 kg/ha): 4.3
- TRZAWR herbicidal rating ([7]; rate 0.1250 kg/ha): 5.0
- CASOB preemergence herbicidal rating ([8]; rate 0.0156 kg/ha): 1.0
- CASOB preemergence herbicidal rating ([8]; rate 0.0313 kg/ha): 1.0
- CASOB preemergence herbicidal rating ([8]; rate 0.0625 kg/ha): 3.0
- CASOB preemergence herbicidal rating ([8]; rate 0.1250 kg/ha): 5.3
- CASOB preemergence herbicidal rating ([8]; rate 0.2500 kg/ha): 8.0
- CHEAL preemergence herbicidal rating ([9]; rate 0.0156 kg/ha): 9.0
- CHEAL preemergence herbicidal rating ([9]; rate 0.0313 kg/ha): 9.0
- CHEAL preemergence herbicidal rating ([9]; rate 0.0625 kg/ha): 9.0
- CHEAL preemergence herbicidal rating ([9]; rate 0.1250 kg/ha): 9.0
- CHEAL preemergence herbicidal rating ([9]; rate 0.2500 kg/ha): 9.0
- GALAP preemergence herbicidal rating ([10]; rate 0.0156 kg/ha): 1.0
- GALAP preemergence herbicidal rating ([10]; rate 0.0313 kg/ha): 4.5
- GALAP preemergence herbicidal rating ([10]; rate 0.0625 kg/ha): 9.0
- GALAP preemergence herbicidal rating ([10]; rate 0.1250 kg/ha): 9.0
- GALAP preemergence herbicidal rating ([10]; rate 0.2500 kg/ha): 9.0
- IPOHE preemergence herbicidal rating ([11]; rate 0.0156 kg/ha): 5.0
- IPOHE preemergence herbicidal rating ([11]; rate 0.0313 kg/ha): 7.7
- IPOHE preemergence herbicidal rating ([11]; rate 0.0625 kg/ha): 7.0
- IPOHE preemergence herbicidal rating ([11]; rate 0.1250 kg/ha): 9.0
- IPOHE preemergence herbicidal rating ([11]; rate 0.2500 kg/ha): 9.0
- ECHCG preemergence herbicidal rating ([12]; rate 0.0156 kg/ha): 5.7
- ECHCG preemergence herbicidal rating ([12]; rate 0.0313 kg/ha): 8.3
- ECHCG preemergence herbicidal rating ([12]; rate 0.0625 kg/ha): 8.7
- ECHCG preemergence herbicidal rating ([12]; rate 0.1250 kg/ha): 9.0
- ECHCG preemergence herbicidal rating ([12]; rate 0.2500 kg/ha): 9.0
- ZEAMX preemergence herbicidal rating ([13]; rate 0.0156 kg/ha): 6.7
- ZEAMX preemergence herbicidal rating ([13]; rate 0.0313 kg/ha): 7.0
- ZEAMX preemergence herbicidal rating ([13]; rate 0.0625 kg/ha): 8.3
- ZEAMX preemergence herbicidal rating ([13]; rate 0.1250 kg/ha): 8.7
- ZEAMX preemergence herbicidal rating ([13]; rate 0.2500 kg/ha): 8.7
- Herbicidal rating ECHORC ([14]; rate 0.0313 kg/ha): 0.0
- Herbicidal rating ECHORC ([14]; rate 0.0625 kg/ha): 2.0
- Herbicidal rating ECHORC ([14]; rate 0.1250 kg/ha): 4.0
- Herbicidal rating ECHORC ([14]; rate 0.2500 kg/ha): 7.0

Compound: CCC1SC(=Nc2cc(-n3c(=O)cc(C(F)(F)F)n(C)c3=O)c(F)cc2Cl)N(C)C1=O (stereo not shown) [Compound 10]
- ABUTH herbicidal rating ([1]; rate 0.0156 kg/ha): 9.0
- ABUTH herbicidal rating ([1]; rate 0.0313 kg/ha): 6.5
- ABUTH herbicidal rating ([1]; rate 0.0625 kg/ha): 7.0
- ABUTH herbicidal rating ([1]; rate 0.1250 kg/ha): 9.0
- AMBEL herbicidal rating ([2]; rate 0.0156 kg/ha): 0.5
- AMBEL herbicidal rating ([2]; rate 0.0313 kg/ha): 1.0
- AMBEL herbicidal rating ([2]; rate 0.0625 kg/ha): 2.0
- AMBEL herbicidal rating ([2]; rate 0.1250 kg/ha): 4.5
- IPOHE herbicidal rating ([3]; rate 0.0156 kg/ha): 3.0
- IPOHE herbicidal rating ([3]; rate 0.0313 kg/ha): 7.0
- IPOHE herbicidal rating ([3]; rate 0.0625 kg/ha): 9.0
- IPOHE herbicidal rating ([3]; rate 0.1250 kg/ha): 8.0
- ECHCG herbicidal rating ([4]; rate 0.0156 kg/ha): 0.0
- ECHCG herbicidal rating ([4]; rate 0.0313 kg/ha): 0.0
- ECHCG herbicidal rating ([4]; rate 0.0625 kg/ha): 0.0
- ECHCG herbicidal rating ([4]; rate 0.1250 kg/ha): 1.0
- SETVI herbicidal rating ([5]; rate 0.0156 kg/ha): 0.0
- SETVI herbicidal rating ([5]; rate 0.0313 kg/ha): 0.0
- SETVI herbicidal rating ([5]; rate 0.0625 kg/ha): 1.0
- SETVI herbicidal rating ([5]; rate 0.1250 kg/ha): 3.0
- GLXMAW herbicidal rating ([6]; rate 0.0156 kg/ha): 4.0
- GLXMAW herbicidal rating ([6]; rate 0.0313 kg/ha): 4.5
- GLXMAW herbicidal rating ([6]; rate 0.0625 kg/ha): 5.3
- GLXMAW herbicidal rating ([6]; rate 0.1250 kg/ha): 5.8
- TRZAWR herbicidal rating ([7]; rate 0.0156 kg/ha): 2.5
- TRZAWR herbicidal rating ([7]; rate 0.0313 kg/ha): 3.3
- TRZAWR herbicidal rating ([7]; rate 0.0625 kg/ha): 3.3
- TRZAWR herbicidal rating ([7]; rate 0.1250 kg/ha): 3.5
- CASOB preemergence herbicidal rating ([8]; rate 0.0156 kg/ha): 0.0
- CASOB preemergence herbicidal rating ([8]; rate 0.0313 kg/ha): 0.7
- CASOB preemergence herbicidal rating ([8]; rate 0.0625 kg/ha): 0.7
- CASOB preemergence herbicidal rating ([8]; rate 0.1250 kg/ha): 1.3
- CASOB preemergence herbicidal rating ([8]; rate 0.2500 kg/ha): 3.3
- CHEAL preemergence herbicidal rating ([9]; rate 0.0156 kg/ha): 9.0
- CHEAL preemergence herbicidal rating ([9]; rate 0.0313 kg/ha): 9.0
- CHEAL preemergence herbicidal rating ([9]; rate 0.0625 kg/ha): 9.0
- CHEAL preemergence herbicidal rating ([9]; rate 0.1250 kg/ha): 9.0
- CHEAL preemergence herbicidal rating ([9]; rate 0.2500 kg/ha): 9.0
- GALAP preemergence herbicidal rating ([10]; rate 0.0156 kg/ha): 0.5
- GALAP preemergence herbicidal rating ([10]; rate 0.0313 kg/ha): 2.0
- GALAP preemergence herbicidal rating ([10]; rate 0.0625 kg/ha): 4.5
- GALAP preemergence herbicidal rating ([10]; rate 0.1250 kg/ha): 9.0
- GALAP preemergence herbicidal rating ([10]; rate 0.2500 kg/ha): 9.0
- IPOHE preemergence herbicidal rating ([11]; rate 0.0156 kg/ha): 2.0
- IPOHE preemergence herbicidal rating ([11]; rate 0.0313 kg/ha): 3.0
- IPOHE preemergence herbicidal rating ([11]; rate 0.0625 kg/ha): 5.3
- IPOHE preemergence herbicidal rating ([11]; rate 0.1250 kg/ha): 8.3
- IPOHE preemergence herbicidal rating ([11]; rate 0.2500 kg/ha): 9.0
- ECHCG preemergence herbicidal rating ([12]; rate 0.0156 kg/ha): 2.0
- ECHCG preemergence herbicidal rating ([12]; rate 0.0313 kg/ha): 4.0
- ECHCG preemergence herbicidal rating ([12]; rate 0.0625 kg/ha): 7.0
- ECHCG preemergence herbicidal rating ([12]; rate 0.1250 kg/ha): 9.0
- ECHCG preemergence herbicidal rating ([12]; rate 0.2500 kg/ha): 9.0
- ZEAMX preemergence herbicidal rating ([13]; rate 0.0156 kg/ha): 4.7
- ZEAMX preemergence herbicidal rating ([13]; rate 0.0313 kg/ha): 6.7
- ZEAMX preemergence herbicidal rating ([13]; rate 0.0625 kg/ha): 7.0
- ZEAMX preemergence herbicidal rating ([13]; rate 0.1250 kg/ha): 7.3
- ZEAMX preemergence herbicidal rating ([13]; rate 0.2500 kg/ha): 8.0
- Herbicidal rating ECHORC ([14]; rate 0.0313 kg/ha): 0.0
- Herbicidal rating ECHORC ([14]; rate 0.0625 kg/ha): 1.0
- Herbicidal rating ECHORC ([14]; rate 0.1250 kg/ha): 2.0
- Herbicidal rating ECHORC ([14]; rate 0.2500 kg/ha): 2.0
